In this data set the test system is K562 cells. Briefly: Cell viability, Cell Titer Glo 2.0 assay, K562. Conditions: 72 hours. On the technique in general: ATP-based viability assays read luminescence as a measure of living cells.

Consider `Cn1cc2cc(-c3ccc4cc(N5CC[C@H](NC(C)(C)C)C5)cnc4n3)c(O)cc2n1` (single isomer, unassigned) [Compound 200], for which the “Effect on Cell Viability, K562” value is recorded as “B (100-1000 nM)”.
As to `CNC1CCN(c2cnc3nc(-c4cc(F)c5nc(C)cn5c4)ccc3c2)C1` (stereo not drawn) [Compound 100, 1-(7-{8-fluoro-2-methylimidazo[1,2-a]pyridin-6-yl}-1,8-naphthyridin-3-yl)-N-methylpyrrolidin-3-amine], the “Effect on Cell Viability, K562” value is reported as “B (100-1000 nM)”.
As for `Cn1cc2cc(-c3cnc4nc(N5CCNCC5)cc(Cl)c4c3)cc(F)c2n1` [Compound 101, 4-chloro-6-(7-fluoro-2-methyl-2H-indazol-5-yl)-2-(piperazin-1-yl)-1,8-naphthyridine], the entry is “B (100-1000 nM)”.
For `Cn1cc2cc(-c3cc(Cl)c4cc(N5CCNCC5)cnc4n3)c(O)cc2n1` [Compound 102, 5-[4-chloro-6-(piperazin-1-yl)-1,8-naphthyridin-2-yl]-2-methylindazol-6-ol], the “Effect on Cell Viability, K562” value is given as “B (100-1000 nM)”.
To `Cn1cc2cc(-c3cc(Cl)c4cc(N5CCNCC5)cnc4n3)cc(F)c2n1` [Compound 103] belongs “B (100-1000 nM)”; to `Cc1c(O)c(-c2cc(Cl)c3cc(N4CCNCC4)cnc3n2)cc2cn(C)nc12` [Compound 154, 5-[4-chloro-6-(piperazin-1-yl)-1,8-naphthyridin-2-yl]-2,7-dimethylindazol-6-ol], “A (<100 nM)”.
To `Cn1cc2cc(-c3cc(Cl)c4cc(N5CCNCC5)cnc4n3)c(O)c(F)c2n1` [Compound 155, 5-[4-chloro-6-(piperazin-1-yl)-1,8-naphthyridin-2-yl]-7-fluoro-2-methylindazol-6-ol] belongs “A (<100 nM)”; to `Cc1c(O)c(-c2ncc3cc(N4CC[C@@H](N)C4)cnc3n2)cc2cn(C)nc12` [Compound 159, (R)-5-(6-(3-aminopyrrolidin-1-yl)pyrido[2,3-d]pyrimidin-2-yl)-2,7-dimethyl-2H-indazol-6-ol 2,2,2-trifluoroacetate], “B (100-1000 nM)”; to `Cc1c(O)c(-c2ncc3cc(N4CC[C@H](N)C4)cnc3n2)cc2cn(C)nc12` [Compound 160, (S)-5-(6-(3-aminopyrrolidin-1-yl)pyrido[2,3-d]pyrimidin-2-yl)-2,7-dimethyl-2H-indazol-6-ol 2,2,2-trifluoroacetate], “B (100-1000 nM)”.
For `COc1nc(-c2cc3cn(C)nc3c(C)c2O)nc2ncc(N3CCC(N(C)C)CC3)cc12` [Compound 163, 5-{6-[4-(dimethylamino)piperidin-1-yl]-4-methoxypyrido[2,3-d]pyrimidin-2-yl}-2,7-dimethylindazol-6-ol], the “Effect on Cell Viability, K562” value is reported as “B (100-1000 nM)”.
As for `Cn1cc2cc(-c3cnc4cc(N5CCC(NC6CC6)C5)ccc4n3)c(O)c(F)c2n1` (stereo not drawn) [Compound 175, 5-[6-[3-(cyclopropylamino)pyrrolidin-1-yl]quinoxalin-2-yl]-7-fluoro-2-methyl-indazol-6-ol], the entry is “A (<100 nM)”; as for `Cn1cc2cc(-c3cnc4cc(N5CC[C@H](NC6CC6)C5)ccc4n3)c(O)c(F)c2n1` [Compound 176, 5-[6-[(3S)-3-(cyclopropylamino)318quinoxaline-1-yl]318quinoxaline-2-yl]-7-fluoro-2-methyl-indazol-6-ol], “A (<100 nM)”; as for `Cn1cc2cc(-c3cnc4cc(N5CC[C@@H](NC6CC6)C5)ccc4n3)c(O)c(F)c2n1` [Compound 177, 5-[6-[(3R)-3-(cyclopropylamino)318quinoxaline-1-yl]318quinoxaline-2-yl]-7-fluoro-2-methyl-indazol-6-ol], “A (<100 nM)”.
For `Cn1cc2cc(-c3cnc4nc(N5CCC(NC6CC6)C5)ccc4n3)c(O)c(F)c2n1` (stereo not drawn) [Compound 178, 5-[6-[3-(cyclopropylamino)pyrrolidin-1-yl]pyrido[2,3-b]pyrazin-2-yl]-7-fluoro-2-methyl-indazol-6-ol], the “Effect on Cell Viability, K562” value is “B (100-1000 nM)”.
As for `Cc1nc2c(C)c(O)c(-c3cnc4cc(N5CCC(NC6CC6)C5)ccc4n3)cc2o1` (stereo not drawn) [Compound 182, 6-[6-[3-(cyclopropylamino)pyrrolidin-1-yl]quinoxalin-2-yl]-2,4-dimethyl-1,3-benzoxazol-5-ol], the entry is “A (<100 nM)”; as for `CNC1CCN(c2cnc3nc(-c4cc5cn(C)nc5c(C)c4O)ccc3n2)C1` (stereo not drawn) [Compound 192, 2,7-dimethyl-5-{2-[3-(methylamino)337pyrrolidine-1-yl]pyrido[2,3-b]pyrazin-6-yl}indazol-6-ol], “B (100-1000 nM)”; as for `Cc1c(O)c(-c2ccc3nc(N4C[C@@H](C)N[C@@H](C)C4)cnc3n2)cc2cn(C)nc12` [Compound 195, 5-{2-[(3R,5S)-3,5-dimethylpiperazin-1-yl]pyrido[2,3-b]pyrazin-6-yl}-2,7-dimethylindazol-6-ol], “B (100-1000 nM)”.
To `Cc1c(O)c(-c2ccc3nc(N4CCNCC4)cnc3n2)cc2cn(C)nc12` [Compound 197, 2,7-dimethyl-5-[2-(piperazin-1-yl)pyrido[2,3-b]pyrazin-6-yl]indazol-6-ol] belongs “B (100-1000 nM)”; to `Cc1c(O)c(-c2ccc3nc(N4CCC(N(C)C)CC4)cnc3n2)cc2cn(C)nc12` [Compound 198], “B (100-1000 nM)”; to `Cc1cn2cc(-c3cnc4nc(C5CCNCC5)ccc4c3)cc(C)c2n1` [Compound 201], “C (1000-9999 nM)”.
To `CN[C@@H]1CCN(c2cnc3nc(-c4cc(F)c5nc(C)cn5c4)ncc3c2)C1` [Compound 202, (3R)-1-(2-{8-fluoro-2-methylimidazo[1,2-a]pyridin-6-yl}pyrido[2,3-d]pyrimidin-6-yl)-N-methylpyrrolidin-3-amine] belongs “B (100-1000 nM)”; to `CC1CN(c2cnc3nc(-c4cc(F)c5nn(C)cc5c4)cc(Cl)c3c2)CCN1` (stereo not drawn) [Compound 203, 4-chloro-2-(7-fluoro-2-methyl-2H-indazol-5-yl)-6-(3-methylpiperazin-1-yl)-1,8-naphthyridine 2,2,2-trifluoroacetate], “B (100-1000 nM)”.
`Cc1c(O)c(-c2cc(Cl)c3cc(N(C)C4CCNC4)cnc3n2)cc2cn(C)nc12` (stereo not drawn) [Compound 204, 5-[4-chloro-6-(367pyrrolidine-3-ylamino)-1,8-naphthyridin-2-yl]-2,7-dimethylindazol-6-ol]: the “Effect on Cell Viability, K562” value is reported as “B (100-1000 nM)”.
Take `C[C@@H]1CN(c2cnc3nc(-c4cc5cn(C)nc5c(F)c4O)ccc3c2)C[C@H](C)N1` [Compound 206]: the “Effect on Cell Viability, K562” value is listed as “A (<100 nM)”.
As for `Cc1c(O)c(-c2cc(Cl)c3cc(N4C[C@@H](C)N[C@@H](C)C4)cnc3n2)cc2cn(C)nc12` [Compound 207, 5-{4-chloro-6-[(3R,5S)-3,5-dimethylpiperazin-1-yl]-1,8-naphthyridin-2-yl}-2,7-dimethylindazol-6-ol], the entry is “A (<100 nM)”; as for `C[C@@H]1CN(c2cnc3nc(-c4cc5cn(C)nc5cc4O)cc(Cl)c3c2)C[C@H](C)N1` [Compound 208], “B (100-1000 nM)”.
To `Cn1cc2cc(-c3cc(Cl)c4cc(N5CCNC(C6CC6)C5)cnc4n3)cc(F)c2n1` (stereo not drawn) [Compound 209, 4-chloro-6-(3-cyclopropylpiperazin-1-yl)-2-(7-fluoro-2-methylindazol-5-yl)-1,8-naphthyridine] belongs “B (100-1000 nM)”.
To `Cc1cn2nc(-c3ccc4cc(NC5CCNCC5)cnc4n3)cc(C)c2n1` [Compound 210, 7-{2,8-dimethylimidazo[1,2-b]pyridazin-6-yl}-N-(piperidin-4-yl)-1,8-naphthyridin-3-amine; trifluoroacetic acid] belongs “C (1000-9999 nM)”; to `CN[C@@H]1CCN(c2cnc3nc(-c4cc5cn(C)nc5c(C)c4O)nc(OC)c3c2)C1` [Compound 211, 5-{4-methoxy-6-[(3R)-3-(methylamino)pyrrolidin-1-yl]pyrido[2,3-d]pyrimidin-2-yl}-2,7-dimethylindazol-6-ol], “A (<100 nM)”.
Regarding `CN[C@H]1CCN(c2cnc3nc(-c4cc5cn(C)nc5c(C)c4O)nc(OC)c3c2)C1` [Compound 212, 5-{4-methoxy-6-[(3S)-3-(methylamino)pyrrolidin-1-yl]pyrido[2,3-d]pyrimidin-2-yl}-2,7-dimethylindazol-6-ol], the “Effect on Cell Viability, K562” value was “A (<100 nM)”.
To `CNC1CCN(c2cnc3nc(-c4cc5cn(C)nc5cc4O)cc(Cl)c3c2)C1` (stereo not drawn) [Compound 213, 5-{4-chloro-6-[3-(methylamino)370pyrrolidine-1-yl]-1,8-naphthyridin-2-yl}-2-methylindazol-6-ol] belongs “B (100-1000 nM)”; to `Cc1c(O)c(-c2ncc3cc(N4C[C@@H](C)N[C@@H](C)C4)cnc3n2)cc2cn(C)nc12` [Compound 214], “B (100-1000 nM)”; to `C[C@@H]1CN(c2cnc3nc(-c4cc(F)c5nn(C)cc5c4)cc(Cl)c3c2)C[C@H](C)N1` [Compound 215], “B (100-1000 nM)”.
As for `Cn1cc2cc(-c3cc(Cl)c4cc(N5CCN6CCCC6C5)cnc4n3)cc(F)c2n1` (stereo not drawn) [Compound 216, 4-chloro-2-(7-fluoro-2-methylindazol-5-yl)-6-{hexahydro-1H-pyrrolo[1,2-a]pyrazin-2-yl}-1,8-naphthyridine trifluoroacetic acid], the entry is “B (100-1000 nM)”; as for `Cc1c(O)c(-c2cc(-c3ccccn3)c3cc(N4C[C@@H](C)N[C@@H](C)C4)cnc3n2)cc2cn(C)nc12` [Compound 217, 5-{6-[(3R,5S)-3,5-dimethylpiperazin-1-yl]-4-(pyridin-2-yl)-1,8-naphthyridin-2-yl}-2,7-dimethylindazol-6-ol], “C (1000-9999 nM)”; as for `COc1nc(-c2cc3cn(C)nc3c(F)c2O)nc2ncc(N3C[C@@H](C)N[C@@H](C)C3)cc12` [Compound 218], “A (<100 nM)”.

The values are drawn from patent US20250326748A1, “COMPOUNDS AND METHODS FOR MODULATING SPLICING” (REMIX THERAPEUTICS INC., priority 2022, published 2025).
